In one data set the target is PI3K. As to the kind of experiment: Kinase profiler assay, PI3K. To be noted: bound stated jointly for the other protein kinases; Table S3. The class given is biochemical, human. How it is done:
(§1) The effects of LLL12 on twenty six purified human protein kinases were performed at the Millipore UK Limited (Dundee, UK) and Reaction Biology Corp. (Malvern, PA) using the Kinase profiler assay. Assays contained a peptide substrate, purified recombinant human protein kinases to be tested, and gamma-labeled ATP, magnesiumion. Radioactive phosphorylated product was measured and quantitated via a scintillation counter.

For data set [1], the system named is mTOR and AKT phosphorylation. Nature of the data set: mTOR and AKT phosphorylation in ALDH+ cells. To be noted: ALDH+ subpopulation, all three cell lines; 5 µmol/L, 24 hours. The class given is cell-based, human. On the procedure: (§2) After sorting by flow cytometry, ALDH^+ and ALDH^+/CD44^+/CD24^− stem-like cells were cultured in serum-free stem cell medium in ultra-low attachment six-well plates (Corning) to maintain cancer stem cell characteristics. ALDH^−, ALDH^−/CD44^+/CD24^+cells and un-separated cells were cultured in regular medium and replaced with identical stem cell medium for three days before being harvested. To assess the effects of STAT3 inhibitors, ALDH^+ and ALDH^+/CD44^+/CD24^− subpopulations of breast cancer cells were treated with LLL12 (5 µmol/L) of or static (10 µmol/L) for 24 hours. STAT3, or control GFP shRNA lentivirus (CTL ShRNA) was introduced into ALDH^+ breast cancer stem-like cells for 48 hours, then followed by selection with puromycin (0.2 µg/ml) for 72 hours. Antibodies (Cell Signaling Tech.) against phospho-specific STAT3 (Tyrosine 705) (P-STAT3, Y705), ERK1/2 (Threonine 202/Tyrosine 204), cleaved Poly (ADP-ribose) polymerase (PARP), ALDH1, cleaved caspase-3, and GAPDH were used for western blots.

The next data set has as its target Fes (Homo sapiens, UniProt P07332). As to the kind of experiment: Kinase profiler assay, Fes. The class given is biochemical. To be noted: 10 concentrations, 100 µM highest; Table S3. On the procedure:
as §1

The conditions of data set [2]: 5 mg/kg IP daily; data not shown.
For a further data set, the target named is Bmx (Homo sapiens, UniProt P51813). Nature of the data set: Kinase profiler assay, Bmx. The following applies: 10 concentrations, 100 µM highest; Table S3. The class given is biochemical. How it is done: as §1
Another data set has as its system STAT1. The following applies: cited from earlier work.
The next data set concerns the target JAK2 (Homo sapiens, UniProt O60674). Nature of the data set: Kinase profiler assay, JAK2. It is filed as biochemical. The following applies: 10 concentrations, 100 µM highest; Table S3. How it is done:
as §1

In data set [3] the test system is ALDH+ subpopulations of SK-BR-3, MDA-MB-231, and SUM159. As to the kind of experiment: Tumorsphere formation, ALDH+ subpopulations. The class given is cell-based, human. To be noted: 2.5–10 µmol/L, 10 to 15 days. How it is done:
ALDH^+ and ALDH^+/CD44^+/CD24^− cells were plated as single cells in ultra-low attachment six-well plates at a density of 250, 500, 1000 or 50,000 viable cells/well as previously described. On the second day after seeding, the ALDH^+ cancer cells were treated with 2.5–10 µmol/L of LLL12 or Stattic. For tumorsphere forming capacity assay, ALDH^+ or ALDH^− cells were plated as single cells in ultra-low attachment six-well plates at a density of 250, 500 or 1000 viable cells/well. Tumorsphere growth was observed under a microscope 10 to 15 days later.

The next data set relates to ALDH1. As to the kind of experiment: ALDH1 protein expression in ALDH+ cells. It is filed as cell-based, human. How it is done:
as §2

Data set [4] has as its system STAT3 phosphorylation (Y705). As to the kind of experiment: Western blot of STAT3 phosphorylation in un-separated breast cancer cells. It is filed as cell-based, human. To be noted: un-separated MDA-MB-231, SK-BR-3, SUM159 cells, 10 µM, 24 hours. On the procedure: as §2
LLL12 was synthesized in Dr. Pui-Kai Li’s laboratory (College of Pharmacy, The Ohio State University). Un-separated cells were treated with 10 µM of LLL12 or DMSO for 24 hours, and the phosphorylation of STAT3 (Y705), and ERK 1/2 (T202/Y204), and expression of STAT3 downstream genes, cleaved caspase-3, and PARP were detected by Western blots. (JPG) Click here for additional data file.

For data set [5], the system named is ALDH+/CD44+/CD24− subpopulation of MDA-MB-231 and SUM159 breast cancer cells. Nature of the data set: Cell viability of ALDH+/CD44+/CD24− subpopulation. It is filed as cell-based, human. The following applies: Figure 5D. How it is done:
(§3) The breast cancer cells were seeded in 96-well plates (3,000 cells/well) in triplicates in a serum-free mammary epithelial basal medium. The following day, cancer cells were treated with 1 to 10 µmol/L of LLL12 or Stattic for 72 hours, STAT3 ShRNA or control GFP shRNA lentivirus (CTL ShRNA) for 48 hours. MTT (Thiazolyl Blue Tetrazolium Bromide, Sigma-Aldrich) assay was used to determine the cell viability.

The test system of the next data set is ALDH− cells. Nature of the data set: MTT cell viability assay, ALDH− subpopulation. It is filed as cell-based, human. The following applies: Figure S4. How it is done:
as §3

For another data set, the target named is mTOR (Homo sapiens, UniProt P42345). Nature of the data set: Kinase profiler assay, mTOR. It is filed as biochemical. The following applies: bound stated jointly for the other protein kinases; Table S3. On the procedure: as §1
A further data set concerns STAT3-regulated genes. Nature of the data set: RT-PCR of STAT3-regulated genes in ALDH+/CD44+/CD24− cells. The following applies: 5 µM, 24 h. The class given is cell-based, human. How it is done:
The ALDH^+ and ALDH^+/CD44^+/CD24^− subpopulations of breast cancer cells were treated with LLL12 (5 µM) or DMSO for 24 h. RNA from the cells was then collected using RNeasy Kits (Qiagen). cDNA was constructed from a 500 ng sample of RNA using Omniscript RT (Qiagen). Primer sequences and source information can be found in Table S1. The intensity of bands was quantified and normalized to GAPDH.

The next data set deals with Yes (Homo sapiens, UniProt P07947). Nature of the data set: Kinase profiler assay, Yes. To be noted: 10 concentrations, 100 µM highest; Table S3. The class given is biochemical. On the procedure: as §1
Data set [6] concerns SUM159 ALDH+ breast cancer stem-like cells. Nature of the data set: Mouse mammary fat pad model with SUM159 ALDH+ cells. The class given is in vivo, NOD/SCID mice. The following applies: 5 mg/kg IP daily.
Method: For mammary fat pad experiments, 1×10^5 of sorted SUM159 ALDH^+ cells, assessed using Aldefluor kit (StemCell Technologies) were injected into the humanized fat pads of NOD/SCID mice (The Jackson Laboratory), as previously described [5]. […] Tumors were measured by a caliper and the volume was calculated using V = π (width^2×length)/6. After 15 days of treatments with LLL12 or vehicle control, tumors were harvested from euthanized mice, snap-frozen in liquid nitrogen, and stored in −80°C. […] The rest of tumors tissues were homogenized to examine the expression of STAT3 phosphorylation by western blot.

Where only a bound is given, the exact number is not on record here.

The source of these data is paper PMC3871589, “Evaluation of STAT3 Signaling in ALDH+ and ALDH+/CD44+/CD24− Subpopulations of Breast Cancer Cells” (PLoS ONE, 2013).

Sequence of Yes (P07947 whole entry): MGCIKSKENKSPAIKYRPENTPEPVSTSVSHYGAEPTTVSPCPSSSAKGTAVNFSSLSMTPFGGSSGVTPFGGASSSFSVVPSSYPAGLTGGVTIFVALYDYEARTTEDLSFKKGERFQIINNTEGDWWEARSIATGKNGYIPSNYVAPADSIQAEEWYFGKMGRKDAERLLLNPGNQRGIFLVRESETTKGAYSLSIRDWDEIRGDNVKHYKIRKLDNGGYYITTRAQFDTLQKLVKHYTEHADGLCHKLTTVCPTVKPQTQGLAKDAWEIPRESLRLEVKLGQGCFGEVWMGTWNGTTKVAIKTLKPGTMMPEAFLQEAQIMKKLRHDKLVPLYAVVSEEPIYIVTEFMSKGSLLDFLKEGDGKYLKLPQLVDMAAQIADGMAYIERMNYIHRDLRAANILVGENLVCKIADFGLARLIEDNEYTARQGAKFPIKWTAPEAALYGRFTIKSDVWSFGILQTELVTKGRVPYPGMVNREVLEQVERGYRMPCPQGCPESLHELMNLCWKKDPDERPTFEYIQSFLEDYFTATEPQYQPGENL
Sequence of JAK2 (O60674 whole entry): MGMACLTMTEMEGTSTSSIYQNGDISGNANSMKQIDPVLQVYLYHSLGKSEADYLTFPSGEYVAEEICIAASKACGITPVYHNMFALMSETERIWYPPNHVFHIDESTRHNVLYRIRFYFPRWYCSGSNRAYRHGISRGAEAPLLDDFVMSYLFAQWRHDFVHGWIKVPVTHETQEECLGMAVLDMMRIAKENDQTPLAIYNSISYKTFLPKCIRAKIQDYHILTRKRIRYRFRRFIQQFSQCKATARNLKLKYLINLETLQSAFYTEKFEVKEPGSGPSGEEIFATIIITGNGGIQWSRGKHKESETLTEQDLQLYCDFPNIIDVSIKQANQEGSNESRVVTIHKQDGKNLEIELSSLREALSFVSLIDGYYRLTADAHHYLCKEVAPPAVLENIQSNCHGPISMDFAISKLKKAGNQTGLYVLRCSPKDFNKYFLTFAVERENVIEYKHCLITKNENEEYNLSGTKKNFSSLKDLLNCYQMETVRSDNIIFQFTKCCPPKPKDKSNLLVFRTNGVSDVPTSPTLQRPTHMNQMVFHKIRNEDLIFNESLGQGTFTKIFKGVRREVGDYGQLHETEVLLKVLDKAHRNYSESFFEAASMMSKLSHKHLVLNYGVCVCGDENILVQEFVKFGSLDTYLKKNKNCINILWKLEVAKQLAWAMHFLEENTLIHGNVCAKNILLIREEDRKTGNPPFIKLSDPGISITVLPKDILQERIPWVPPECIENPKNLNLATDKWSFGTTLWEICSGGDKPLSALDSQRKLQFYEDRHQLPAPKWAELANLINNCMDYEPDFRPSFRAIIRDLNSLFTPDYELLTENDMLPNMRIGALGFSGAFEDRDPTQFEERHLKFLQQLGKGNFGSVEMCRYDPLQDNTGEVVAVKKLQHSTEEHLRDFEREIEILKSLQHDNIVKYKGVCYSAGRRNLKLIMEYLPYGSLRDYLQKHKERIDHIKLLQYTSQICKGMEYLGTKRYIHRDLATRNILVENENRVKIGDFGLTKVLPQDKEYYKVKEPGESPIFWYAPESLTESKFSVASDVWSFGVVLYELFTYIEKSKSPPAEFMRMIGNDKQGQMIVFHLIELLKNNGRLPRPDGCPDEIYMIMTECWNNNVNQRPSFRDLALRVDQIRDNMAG
Sequence of Fes (P07332 whole entry): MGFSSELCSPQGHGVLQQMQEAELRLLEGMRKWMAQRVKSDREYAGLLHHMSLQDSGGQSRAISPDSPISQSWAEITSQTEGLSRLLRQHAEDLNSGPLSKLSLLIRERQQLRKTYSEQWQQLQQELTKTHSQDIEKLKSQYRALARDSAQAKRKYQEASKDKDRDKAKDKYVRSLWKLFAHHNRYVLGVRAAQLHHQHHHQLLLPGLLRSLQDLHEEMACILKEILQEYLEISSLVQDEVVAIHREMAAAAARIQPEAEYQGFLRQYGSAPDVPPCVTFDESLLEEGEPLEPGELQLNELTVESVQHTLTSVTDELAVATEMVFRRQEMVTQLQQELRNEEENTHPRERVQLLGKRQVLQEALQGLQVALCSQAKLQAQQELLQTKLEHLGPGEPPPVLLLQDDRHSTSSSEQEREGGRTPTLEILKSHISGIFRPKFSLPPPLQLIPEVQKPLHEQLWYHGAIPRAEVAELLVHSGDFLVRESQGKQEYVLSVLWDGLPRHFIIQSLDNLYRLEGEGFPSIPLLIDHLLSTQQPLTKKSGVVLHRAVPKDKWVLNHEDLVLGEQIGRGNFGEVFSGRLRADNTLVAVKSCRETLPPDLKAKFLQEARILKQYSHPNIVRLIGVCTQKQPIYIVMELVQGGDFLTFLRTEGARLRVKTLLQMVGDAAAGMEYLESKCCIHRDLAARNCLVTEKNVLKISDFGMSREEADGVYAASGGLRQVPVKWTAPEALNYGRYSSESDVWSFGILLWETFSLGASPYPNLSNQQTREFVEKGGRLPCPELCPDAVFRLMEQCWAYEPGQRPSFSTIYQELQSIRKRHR
Sequence of Bmx (P51813 whole entry): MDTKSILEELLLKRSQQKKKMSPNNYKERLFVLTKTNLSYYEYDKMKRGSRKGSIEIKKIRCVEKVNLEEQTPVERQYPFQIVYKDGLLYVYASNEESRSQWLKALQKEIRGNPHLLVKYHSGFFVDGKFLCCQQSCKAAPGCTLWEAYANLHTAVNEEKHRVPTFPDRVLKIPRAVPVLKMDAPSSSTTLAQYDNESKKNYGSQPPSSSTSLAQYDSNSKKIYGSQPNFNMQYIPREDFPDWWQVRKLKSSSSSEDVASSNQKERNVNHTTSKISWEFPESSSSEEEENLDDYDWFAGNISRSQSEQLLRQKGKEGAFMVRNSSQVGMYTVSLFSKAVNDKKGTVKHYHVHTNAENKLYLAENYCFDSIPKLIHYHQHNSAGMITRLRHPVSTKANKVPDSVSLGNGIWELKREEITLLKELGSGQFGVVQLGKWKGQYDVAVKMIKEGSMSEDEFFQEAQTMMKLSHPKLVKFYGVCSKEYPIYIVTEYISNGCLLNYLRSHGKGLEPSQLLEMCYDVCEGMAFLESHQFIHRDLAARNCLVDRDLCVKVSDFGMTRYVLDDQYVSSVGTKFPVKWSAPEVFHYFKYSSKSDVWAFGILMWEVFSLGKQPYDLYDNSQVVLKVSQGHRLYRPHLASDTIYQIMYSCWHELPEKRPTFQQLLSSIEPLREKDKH

The term IC50 denotes the point on the concentration scale where inhibition reaches its midpoint. A low value points to greater potency. For `NS(=O)(=O)c1cccc2c1C(=O)c1cccc(O)c1C2=O` [LLL12], the IC50 is at least 77.9 µM at PI3K; over 100 µM at Fes; over 100 µM at Bmx; over 100 µM against JAK2; at least 77.9 µM on mTOR; over 100 µM against Yes. Moreover, the “mTOR and AKT phosphorylation” value in data set [1] was “almost no effect”. The “body weight compared to vehicle control” value in [2] is on record as “did not differ”. Besides, the “STAT1 DNA binding activity” value in the data set on STAT1 is on record as “not”. The tumorsphere formation result in [3] is “suppress”. In addition, the “expression of ALDH1 protein” value with ALDH1 was “down-regulated”. The STAT3 phosphorylation entry in data set [4] is on record as “inhibited”. In addition, the cell viability result in data set [5] is recorded as “inhibited”. Moreover, the “effects against the ALDH− cells (cell viability)” value in the data set on ALDH− cells is recorded as “some inhibitory effects”. Further, the “expression of Cyclin D1, survivin, Bcl-2, Bcl-XL and Notch1” value with STAT3-regulated genes was “down-regulated”. Also, the “STAT3 phosphorylation in tumor” value in data set [6] is given as “significant suppresses”. Also, the tumor mass entry in data set [6] (15 days, P<0.05) is listed as “significant suppresses”. The tumor volume entry in data set [6] (15 days, P<0.05) was “significant suppresses”.
